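A five-concentration, 48-hour dose response in 96-well plates underlies each endpoint, interpolated linearly between surrounding concentrations. TGI denotes the concentration required for complete inhibition of growth.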
How the values were obtained:
Assay in all cases: NCI-60 cell line screen, 48 h
SN12C renal = tested on: SN12C renal
HS 578T breast = tested on: HS 578T breast
786-0 renal = tested on: 786-0 renal
MOLT-4 leukemia = tested on: MOLT-4 leukemia
SW-620 colon = tested on: SW-620 colon
OVCAR-4 ovarian = tested on: OVCAR-4 ovarian
A549 NSCLC = tested on: A549 NSCLC
CAKI-1 renal = tested on: CAKI-1 renal
CCRF-CEM leukemia = tested on: CCRF-CEM leukemia
EKVX NSCLC = tested on: EKVX NSCLC
LOX IMVI melanoma = tested on: LOX IMVI melanoma
IGROV1 ovarian = tested on: IGROV1 ovarian
K-562 leukemia = tested on: K-562 leukemia
NCI-H23 lung = tested on: NCI-H23 lung

Measured: TGI

COC(=O)C1=C(OC(=O)/C(=C/c2ccccc2)c2ccc(Cl)cc2Cl)C(C(=O)OC)[C@@]2(O)[C@@H](C(=O)OC)[C@H](C)C[C@@H]1[C@@H]2C(=O)OC (some centres undefined)
> 100 µM: SN12C renal | HS 578T breast | 786-0 renal | MOLT-4 leukemia | SW-620 colon | OVCAR-4 ovarian | A549 NSCLC | CAKI-1 renal | CCRF-CEM leukemia | EKVX NSCLC | LOX IMVI melanoma | IGROV1 ovarian | K-562 leukemia | NCI-H23 lung

— PubChem BioAssay (NCI)
